What was measured:
[1] = tested on: peripheral blood mononuclear cells (PBMC) from patients affected by chronic lymphocytic leukemia; test: PHA-induced cell blast formation / proliferation (BrdU incorporation ELISA) in ex vivo PBMC cultures; format: cell-based, human; details: for % reduction in cell blast formation: PBMC stimulated with PHA 20 ug/mL
Excerpt: The protocol for isolation and treatment of cells from patients affected by chronic lymphocytic leukemia comprised the following steps:
• Blood sample taken between 8:00 and 9:30 a.m.; • Blood sample sent to the laboratory to be processed immediately; • Evaluation of the total volume of the blood received to proceed with 1:2 dilution with sterile saline solution; • Isolation of the mononuclear cells performed by layering of the blood on a Ficoll-Paque Plus density gradient at a ratio of 1:3, ensuring that the two phases remain separate; • Centrifugation for 40 minutes at 1800 rpm at room temperature; • Recovery of the PBMC layers in the interface between the Ficoll and the plasma; • Washing in saline solution to eliminate residual Ficoll centrifuging at 1200 rpm for 7 minutes at 4°C; • Washing in RPM1 1640 medium, centrifuging at 1200 rpm for 7 minutes at 4°C; • Pellet suspension in complete medium, i.e. RPM1 1640 with the addition of L-glutamine 4mM, penicillin at 50U/ml, streptomycin […] and with 10% of FBS (fetal bovine serum); • Preparation of a 10% cell suspension with Trypan Blue dye and counting of cells under the microscope with Burker camera; cell vitality is also checked using the dye exclusion test; • Counting of the total number of cells and adjustment of the cell concentration to the required value.
The cells thus isolated were cultured in the complete culture medium, and a culture was prepared placing 1 mL of cell suspension in a 5 mL polypropylene […] (Falcon) to study cytokine expression and production, and 100 microL in each microplate well. To induce cell blast formation, mitogen phytohemagglutinin (PHA) (20 ug/mL (Pharmacia) selective for T-lymphocytes was added.
The control culture was prepared without adding any mitogenic substance.
The substance to be tested, i.e. L-carnitine and L-carnitine + suramin, at the desired concentration, was added both to cultures with and to those without mitogen. The cultures were incubated in an incubator at 37°C, in a humidified environment with 5% carbon dioxide added.
Evaluation of cell proliferation and therefore of DNA synthesis by isolated and cultured PBMC was performed after stimulation with mitogen and using the Biotrak ELISA system (Amersham Biosciences Europe GmbH, Milan, Italy), based on the measure of incorporation of 5-bromo-2-deoxyuridine (BrdU), pyrimidine analog, into the newly synthesized DNA. 18 hours before the end of incubation 10 microl of culture medium containing BrdU at a final concentration of 10 micromol/L were added to the cultures. At the end of incubation the culture medium was removed by centrifuging the plates at 300 rpm for 10 minutes. Subsequently, the plates were kept in an oven at 60°C for one hour. This was followed by two incubations of 30 minutes each, first in the presence of a fixative required for cell fixation and DNA denaturation, then in the presence of a blocking buffer. After addition of the anti-BrdU antibody, combined with the enzyme peroxidase, the plates were incubated for 90 minutes, after which three washes of 5 minutes each were performed, using PBS. The substrate used for the colorimetric reaction consisted of 3,3',5,5'-tetramethylbenzidine. The reaction was blocked after 15 minutes with H2SO4 1M and the optical density was measured at a wavelength of 450 nanometers, using a plate reader spectrophotometer. The PBMC proliferation values in the different wells were expressed as optical density from which the optical density recorded in the control wells without BrdU was subtracted.

[2] = tested on: human peripheral blood mononuclear cells (PBMCs) in healthy volunteers; details: lymphocytes from healthy volunteers stimulated with PHA; cited from earlier work

C[N+](C)(C)C[C@H](O)CC(=O)[O-] [Carnitine, L-carnitine]
% reduction in cell blast formation ([1]; Patient 1, I.S. 1.9): 30%
% reduction in cell blast formation ([1]; Patient 2, I.S. 3.4): 65%
% reduction in cell blast formation ([1]; Patient 3, I.S. 4.4): 40%
% reduction in cell blast formation ([1]; Patient 4, I.S. 1.6): 24.4%
% reduction in cell blast formation ([1]; Patient 5, I.S. 2.3): 16.5%
proliferation induced with PHA ([1]; all patients, summary in words): reduces the proliferation induced with PHA in all patients
blastogenesis of T lymphocytes caused by phytohemagglutinin (PHA) [2]: inhibits, in a dose-dependent manner
